These results are taken from ChEMBL document CHEMBL4808173, “Discovery of Novel Benzimidazole and Indazole Analogues as Tubulin Polymerization Inhibitors with Potent Anticancer Activities” (J Med Chem, 2021).

Holding throughout (format): functional, cell-based
One assay has as its system MCF7. The experiment in a line: Antiproliferative activity against human MCF7 cells assessed as reduction in cell viability measured after 48 hrs by MTT assay. To be noted: MCF7, 48 h. (Formazan colour is commonly taken as a measure of viable cells.)
The subject of the next assay is A549. The experiment in a line: Antiproliferative activity against human A549 cells assessed as reduction in cell viability measured after 48 hrs by MTT assay. The settings on record: A549, 48 h.
The subject of another assay is HeLa. The assay is described as follows: Antiproliferative activity against human HeLa cells assessed as reduction in cell viability measured after 48 hrs by MTT assay.
The next assay deals with B16-F10. The assay is described as follows: Antiproliferative activity against mouse B16-F10 cells assessed as reduction in cell viability measured after 48 hrs by MTT assay. The settings on record: B16-F10, 48 h.
The next assay deals with A2780/Taxol. The experiment in a line: Antiproliferative activity against human A2780T cells assessed as reduction in cell viability measured after 48 hrs by MTT assay.
The subject of the next assay is A2780S. The assay is described as follows: Antiproliferative activity against human A2780S cells assessed as reduction in cell viability measured after 48 hrs by MTT assay.

Usually IC50 stands for the concentration needed to halve the response being measured. `COc1cc(-c2n[nH]c3ccc(-c4ccc(C(=N)NO)cc4)cc23)cc(OC)c1OC`: the concentration for half-maximal inhibition (IC50) with MCF7 was determined as 3.16 µM; in the assay with A549, 2.98 µM; in the assay with HeLa, 3.79 µM; with B16-F10, 1.6 µM.
For `COc1cc(-c2ccc3[nH]nc(-c4ccc5c(ccn5C)c4)c3c2)cc(OC)c1OC`, in that order: 9.98 µM, more than 10 µM, 8.03 µM and 9.26 µM.
For `COc1ccc(-c2ccc3[nH]nc(-c4cc(OC)c(OC)c(OC)c4)c3c2)cc1` the same measures were 0.037 µM, 0.191 µM, 0.132 µM and 0.161 µM.
For `COc1cc(-c2ccnc3cc(-c4ccc(S(C)(=O)=O)cc4)nn23)cc([Se]C)c1OC` the same measures were 3.16 µM, 6.98 µM, 8.52 µM and 8.52 µM.
As for `COc1cc(-c2ccnc3cc(-c4ccc5c(ccn5C)c4)nn23)cc([Se]C)c1OC`, the IC50 is 0.123 µM in the assay with MCF7, 0.372 µM with A549, 0.126 µM in the assay with HeLa and 0.126 µM with B16-F10.
For the molecule `COc1cc(-c2cccc3[nH]c(-c4ccc5c(ccn5C)c4)nc23)cc(OC)c1OC`, the IC50 amounted to 0.7 µM with MCF7, 2.6 µM in the assay with A549, 1.54 µM in the assay with HeLa and 0.746 µM in the assay with B16-F10.
As for `COc1cc(-c2n[nH]c3ccc(-c4ccccc4)cc23)cc(OC)c1OC`, the IC50 with MCF7 stood at 0.245 µM; in the assay on A549, 0.445 µM; in the assay on HeLa, 0.547 µM; with B16-F10, 0.394 µM.
For the molecule `COc1cc(-c2cccc3[nH]c(-c4cccc(C(=N)NO)c4)nc23)cc(OC)c1OC`, the IC50 in the assay on MCF7, in the assay on A549, in the assay with HeLa and with B16-F10 was more than 10 µM in each case.
`COc1cc(-c2ccnc3cc(-c4cn(CO)c5ccccc45)nn23)cc([Se]C)c1OC`: the IC50 turned out to be 0.313 µM in the assay on MCF7, 0.224 µM in the assay with A549, 0.856 µM in the assay on HeLa and 0.856 µM with B16-F10.
On to `COc1cc(-c2ccc3[nH]nc(-c4ccc(C(=N)NO)cc4)c3c2)cc(OC)c1OC`, for which the half-inhibitory concentration (IC50) in the assay with MCF7, in the assay on A549, in the assay on HeLa and with B16-F10 was more than 10 µM in each case.
In the case of `COc1cc(-c2n[nH]c3ccc(-c4ccc5c(ccn5C)c4)cc23)cc(OC)c1OC`, the IC50 with MCF7 is 0.026 µM; with A549, 0.093 µM; in the assay with HeLa, 0.141 µM; in the assay on B16-F10, 0.064 µM.
For `COc1ccc(-c2n[nH]c3ccc(-c4cc(OC)c(OC)c(OC)c4)cc23)cc1` the same measures were more than 10 µM, more than 10 µM, more than 10 µM and more than 10 µM.
Take `COc1cc2c(c(OC)c1OC)-c1ccc(OC)c(=O)cc1[C@@H](NC(C)=O)CC2` [COLCHICINE]: the IC50 in the assay on MCF7 was found to be 0.021 µM; in the assay with HeLa, 0.083 µM; in the assay with B16-F10 it was 0.083 µM; in the assay on A2780/Taxol, 0.784 µM; in the assay on A2780S, 0.0167 µM.
As to `COc1cc(-c2cnc3c(-c4ccc5c(ccn5C)c4)nccn23)cc(OC)c1OC`, the IC50 in the assay with MCF7, in the assay with A549, with HeLa and in the assay on B16-F10 was more than 10 µM each time.
Consider `COc1cc(-c2ccnc3cc(-c4ccc(C)cc4)nn23)cc([Se]C)c1OC`, for which the half-inhibitory concentration (IC50) with MCF7 came out at 0.168 µM; in the assay on A549, 0.231 µM; with HeLa it was 0.443 µM; in the assay with B16-F10, 0.443 µM.
Turning to `COc1cc(-c2nccn3c(-c4ccc5c(ccn5C)c4)cnc23)cc(OC)c1OC`, the half-maximal inhibitory concentration (IC50) in the assay on MCF7, in the assay with A549, with HeLa and with B16-F10 was more than 10 µM throughout.
`COc1cc(-c2n[nH]c3ccc(-c4ccc(F)cc4)cc23)cc(OC)c1OC`: the IC50 in the assay with MCF7 came out at 0.606 µM; with A549, 0.759 µM; with HeLa it was 0.926 µM; in the assay on B16-F10, 0.635 µM.
For `COc1cc(-c2n[nH]c3ccc(-c4cccc(C(=N)NO)c4)cc23)cc(OC)c1OC`, in that order: more than 10 µM, 6.25 µM, 4.68 µM and 8.03 µM.
For `COc1ccc(-c2cc3nccc(-c4cc(OC)c(OC)c([Se]C)c4)n3n2)cc1[N+](=O)[O-]` the same measures were 6.19 µM, more than 10 µM, 7.95 µM and 7.95 µM.
As to `COc1cc(-c2cccc3[nH]c(-c4ccc(C(=N)NO)cc4)nc23)cc(OC)c1OC`, the IC50 in the assay with MCF7, in the assay with A549, with HeLa and in the assay on B16-F10 was more than 10 µM throughout.
Regarding `COc1cc(-c2cccc3[nH]c(-c4ccc(C#N)cc4)nc23)cc(OC)c1OC`, the IC50 in the assay on MCF7, in the assay on A549, with HeLa and with B16-F10 was more than 10 µM each time.
As to `COc1cc(-c2n[nH]c3ccc(-c4ccc(C#N)cc4)cc23)cc(OC)c1OC`, the IC50 in the assay on MCF7 came out at 1.05 µM; in the assay with A549, 1.03 µM; in the assay with HeLa, 2.07 µM; with B16-F10 it was 1.41 µM.
As to `COc1cc(-c2n[nH]c3ccc(-c4cccc(C#N)c4)cc23)cc(OC)c1OC`, the IC50 in the assay with MCF7 stood at 2.38 µM; in the assay with A549 it was 1.04 µM; in the assay on HeLa it was 2.04 µM; with B16-F10 it was 1.71 µM.
On to `COc1cc(-c2n[nH]c3ccc(-c4ccc(C)cc4)cc23)cc(OC)c1OC`, for which the IC50 turned out to be 0.043 µM in the assay with MCF7, 0.531 µM with A549, 0.265 µM with HeLa and 0.054 µM in the assay on B16-F10.
For `CCCCn1ccc2c(-c3nc4c(-c5cc(OC)c(OC)c(OC)c5)cccc4[nH]3)cccc21`, in that order: more than 10 µM, more than 10 µM, more than 10 µM and more than 10 µM.
For `COc1cc(-c2cccc3[nH]c(-c4cn(C)c5ccccc45)nc23)cc(OC)c1OC`, in that order: 0.176 µM, 1.01 µM, 0.981 µM and 0.631 µM.
For `COc1cc(-c2ccc3[nH]nc(-c4cccc(C(=N)NO)c4)c3c2)cc(OC)c1OC`, in that order: more than 10 µM, more than 10 µM, more than 10 µM and more than 10 µM.
In the case of `COc1cc(-c2ccc3[nH]nc(-c4cccc(C#N)c4)c3c2)cc(OC)c1OC`, the IC50 in the assay on MCF7, with A549, with HeLa and in the assay with B16-F10 was more than 10 µM in each case.
Regarding `COc1cc(-c2ccnc3cc(-c4ccccc4)nn23)cc([Se]C)c1OC`, the IC50 was 3.16 µM in the assay on MCF7, more than 10 µM in the assay with A549, 7.12 µM in the assay with HeLa and 7.12 µM in the assay on B16-F10.
In the case of `COc1cc(-c2ccnc3cc(-c4ccc5cnn(C)c5c4)nn23)cc([Se]C)c1OC`, the IC50 with MCF7 is 1.18 µM; in the assay with A549, 1.25 µM; in the assay with HeLa it was 3.7 µM; in the assay with B16-F10 it was 3.7 µM.
Consider `COc1cc(-c2ccc3[nH]nc(-c4ccc(C#N)cc4)c3c2)cc(OC)c1OC`, for which the IC50 in the assay with MCF7, in the assay on A549, with HeLa and in the assay on B16-F10 was more than 10 µM in each case.
Regarding `COc1cc(-c2nccn3c(-c4cc(OC)c(OC)c(OC)c4)cnc23)cc(OC)c1OC`, the IC50 in the assay on MCF7, in the assay with A549, with HeLa and in the assay on B16-F10 was more than 10 µM throughout.
`COc1cc(-c2ccc3[nH]nc(-c4ccccc4)c3c2)cc(OC)c1OC`: the half-inhibitory concentration (IC50) in the assay with MCF7, in the assay with A549, in the assay with HeLa and in the assay with B16-F10 was more than 10 µM in each case.
For `COc1cc(-c2ccc3[nH]nc(-c4ccc(C)cc4)c3c2)cc(OC)c1OC`, the IC50 in the assay with MCF7, in the assay on A549, in the assay on HeLa and with B16-F10 was more than 10 µM each time.
As for `COc1cc(-c2cccc3[nH]c(-c4cccc(C#N)c4)nc23)cc(OC)c1OC`, the IC50 is more than 10 µM in the assay with MCF7, more than 10 µM with A549, 6.19 µM in the assay with HeLa and 6.19 µM with B16-F10.
Take `COc1cc(-c2ccc3[nH]nc(-c4cc(OC)c(OC)c(OC)c4)c3c2)cc(OC)c1OC`: the IC50 in the assay on MCF7 was more than 10 µM; in the assay on A549, 7.9 µM; with HeLa, 8.62 µM; with B16-F10, 7.27 µM.
For `Cn1ccc2cc(-c3nccn4c(-c5ccc6c(ccn6C)c5)cnc34)ccc21` the same measures were more than 10 µM, more than 10 µM, more than 10 µM and more than 10 µM.
For `COc1cc(-c2n[nH]c3ccc(-c4ccc5c(cnn5C)c4)cc23)cc(OC)c1OC`, in that order: 0.36 µM, 6.22 µM, 2.02 µM and 2.62 µM.
For `COc1cc(-c2ccnc3cc(-c4c[nH]c5ccccc45)nn23)cc([Se]C)c1OC`, in that order: 0.349 µM, 0.36 µM, 0.662 µM and 0.662 µM.
With `COc1cc(-c2ccc3[nH]nc(-c4ccc(F)cc4)c3c2)cc(OC)c1OC`, the IC50 in the assay with MCF7, in the assay on A549, in the assay with HeLa and with B16-F10 was more than 10 µM in each case.
